{"source": "patent US20090023700A1", "about": "“NEUROPROTECTIVE TREATMENTS” (University of Louisville Research Foundation, priority 2007, published 2009)", "key": {"[1]": {"system": "T9 contusive spinal cord injury", "assay": "Grid-walking sensorimotor test after T9 contusion", "procedure": "Rats received a 0.3 mm contusion at T9 and 4 h later were implanted with a lumbar catheter to start infusions with PBS (n=9) or PBS containing 100 μM bpV(phen) (n=9). The treatment was maintained for 28 d by replacing the Alzet pumps every week with ones containing fresh reagents (FIG. 1A). Weekly hindlimb grid-walking performance was used to test sensorimotor function, which is in part dependent on the primary afferents and second-order propriospinal axons of the fasciculus gracilis in the dorsal columns. […] Naive rats take ˜150 s to complete the task.\nBaseline values were determined a few days before the contusion. Sensorimotor function was tested by voluntary walking on a 45×45 inch grid with 1.5 inch holes. The hindlimb footfalls were called out by two investigators observing from different sides and recorded by a third. The test was completed after 90 s of walking was observed, and the total time was recorded."}, "Iba1": {"system": "Iba1", "assay": "Iba1 immunostaining (microglial/macrophage activation) after T9 contusion", "format": "in vivo, rat", "details": "7 d infusion started 4 h after injury", "protocol": "Inflammation is a major contributor to white matter loss after spinal cord injury. Therefore, to find a potential mechanism for the axon- and myelin-protective effects of bpV(phen), its effects on Iba1 immunostaining were measured as a marker for microglial/macrophage activation and inflammation. […] Whereas, PBS-infused rats had clear infiltrates of activated macrophages, those infused with bpV(phen) had predominantly […] microglial cells. […] The extent of white matter loss in the dorsal column at the epicenter correlated to the extent of microglia/macrophage activation at the epicenter (FIG. 8B). The extent of inflammation 1 mm rostral to the injury correlated with the loss of CTB-labeled sensory projections in the gracile nucleus (FIG. 8C) but not with that seen at the epicenter (p=0.3) or caudal to the lesion (p=0.57). […] Conversely, the possibility that bpV(phen) affected inflammation at other times over the 7 d period cannot be excluded.\nAnterogradely labeled sensory fibers and terminals were visualized in every third section through both gracile nuclei by DAB-based immunostaining for CTB as described previously (Baker et al. (2007) Exp Neurol 205:82-91). The lumbar sections were stained to ensure that the CTB injections were successful as evidenced by traced afferents and motor neurons. […] The epicenter of maximal injury was determined by the rostrocaudal level with the least amount of spared white matter per transverse section. […]\nQuantitative measurements and statistics. The extent of sensory innervation of the gracile nucleus was determined by measuring the CTB-labeled terminal fiber area in every third section as described previously (Baker et al. (2007) Exp Neurol 205:82-91). In short, images of every third section through the right and left gracile nuclei were analyzed using the density slice feature of the Scion Image software. […] Images of EC-stained sections were captured, and the positive areas were measured with Scion Image. […]"}, "PTPs": {"system": "PTPs", "details": "cited from earlier work"}, "rat cardiomyocytes": {"system": "rat cardiomyocytes", "details": "cited from earlier work"}, "cdc25B PTP": {"target": "T1, cdc25B PTP (Mus musculus, UniProt P30306)", "T1 sequence (P30306 1-576)": "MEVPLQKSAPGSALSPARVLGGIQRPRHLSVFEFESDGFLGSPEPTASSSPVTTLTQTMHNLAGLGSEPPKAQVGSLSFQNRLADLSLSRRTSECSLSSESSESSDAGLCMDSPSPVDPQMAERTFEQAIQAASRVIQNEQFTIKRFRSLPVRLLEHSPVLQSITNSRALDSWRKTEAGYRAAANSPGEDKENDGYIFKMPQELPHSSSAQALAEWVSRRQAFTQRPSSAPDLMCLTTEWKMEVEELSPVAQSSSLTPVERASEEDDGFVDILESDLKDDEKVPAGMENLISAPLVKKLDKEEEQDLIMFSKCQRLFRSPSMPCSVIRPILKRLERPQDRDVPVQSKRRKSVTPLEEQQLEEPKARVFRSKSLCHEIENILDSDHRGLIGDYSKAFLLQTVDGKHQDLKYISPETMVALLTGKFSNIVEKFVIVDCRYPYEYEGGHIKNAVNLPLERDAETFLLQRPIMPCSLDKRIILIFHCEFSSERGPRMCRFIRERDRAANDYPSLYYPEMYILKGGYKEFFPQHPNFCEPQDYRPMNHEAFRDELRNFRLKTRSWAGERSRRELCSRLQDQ", "details": "mouse enzyme; cited from earlier work"}, "[2]": {"system": "T9 contusive spinal cord injury", "assay": "Semmes-Weinstein filament test for at-level pain (allodynia)", "format": "in vivo, rat", "details": "100 μM, 28 d L5/6 infusion", "protocol": "Whether bpV(phen) might have detrimental side effects, such as inducing pain at the level of the injury, was tested. Severe spinal cord injury can induce hypersensitivity and mechanical allodynia (a painful response to a nonpainful tactile skin stimulus) at the level of injury. […] Differences between any of the bpV(phen)- and PBS-treated groups in the overall health status, general behavior, and grooming of the rats were not observed."}, "AP1": {"system": "AP1", "details": "macrophages; cited from earlier work"}}, "data": [{"smiles": "O.O.O.OO.OO.[K+].[OH-].[V].c1cnc2c(c1)ccc1cccnc12", "note": "[bpV(phen), potassium bisperoxo(1,10-phenanthroline)oxovanadate (V)]", "values": [{"measurement": "total time to perform 90 s of grid walking", "setting": "[1]; 100 μM L5/6 infusion started 4 h after contusion, 8 d, PBS 219 s, naive ~150 s", "value": 151, "unit": "s"}, {"measurement": "number of hindlimb footfalls (sum of both hindlimbs), grid walk", "setting": "[1]; 100 μM L5/6 infusion started 4 h after contusion, 8 d test, PBS 29+/−6, before contusion 7+/−1", "value": "14+/−2"}, {"measurement": "rats within normal range of footfalls (3-14)", "setting": "[1]; 100 μM L5/6 infusion started 4 h after contusion, day 8, PBS one of nine", "value": "seven of nine"}, {"measurement": "number of hindlimb footfalls, grid walk", "setting": "[1]; 100 μM, 28 d L5/6 infusion started 4 h after contusion, 29 d test, PBS 13+/−2", "value": "6+/−1"}, {"measurement": "total time to perform 90 s of grid walking", "setting": "[1]; 100 μM, 28 d L5/6 infusion started 4 h after contusion, 36 d, PBS 200 s", "value": 125, "unit": "s"}, {"measurement": "area of Iba1-immunostained structures", "setting": "Iba1; 1 mm caudal to epicenter, p=0.49", "value": "no difference"}, {"measurement": "area of Iba1-immunostained structures", "setting": "Iba1; 1 mm rostral to epicenter, p<0.005", "value": "significantly reduced"}, {"measurement": "area of Iba1-immunostained structures", "setting": "Iba1; at the epicenter, p=0.053", "value": "trend of a reduction"}, {"measurement": "inhibition of PTPs", "setting": "PTPs", "value": "inhibits"}, {"measurement": "glutathione concentration", "setting": "rat cardiomyocytes", "value": "does not change"}, {"measurement": "inhibition of catalytic activity of purified cdc25B PTP", "setting": "cdc25B PTP", "value": "can inhibit"}, {"measurement": "induction of pain by chronic infusion", "setting": "[2]", "value": "do not induce pain"}, {"measurement": "Semmes-Weinstein filament size evoking a response (pain at level of injury)", "setting": "[2]; entire test period", "value": "not different from those of the PBS group"}, {"measurement": "AP1 activation", "setting": "AP1", "value": "activates"}]}]}
